Values after ≈ are worked out from the molar mass of the structure shown.
Columns and labels:
[1] = test system: advanced glycation end products (AGEs); assay: AGEs inhibitory activity, bovine serum albumin-methylglyoxal assay (fluorescence); assay type: biochemical; settings: 100 μg/mL
Description: The modified procedure of Lee et al. was followed. Bovine serum albumin (10 mg/mL) was incubated with 5 mM methylglyoxal in sodium phosphate buffer (100 mM; pH 7.4). […] All of the reagents and samples were […] by filtration through 0.2 μm membrane filters and the mixture was incubated at 37 °C for 7 days. The fluorescence intensity was measured at an excitation wavelength of 330 nm and an emission wavelength of 410 nm with a LS50B fluorescence spectrometer Perkin-Elmer Ltd., (Buckinghamshire, FLS, UK). Aminoguanidine was also tested as a known inhibitor.

[2] = test system: α-glucosidase from Saccharomyces sp.; assay: α-glucosidase inhibitory activity assay (pNPG substrate, absorbance 405 nm); assay type: biochemical
Text: ^1H- and ^13C-NMR spectra and correlation NMR spectra such as COSY, HMBC, HMQC, and DEPT were obtained from a Bruker Avance DPX 400 (or 600) spectrometer (Berlin, Germany). These were obtained at operating frequencies of 400 MHz (^1H) and 100 (or 150) MHz (^13C) with CD3OD, (CD3)2SO, (CD3)2CO, or D2O and TMS was used as an internal standard; chemical shifts were reported in δ values. The α-glucosidase from Saccharomyces sp. (SSG) was purchased from Wako Pure Chemical Industries Ltd (Tokyo, Japan). […] All other chemicals and reagents used were of analytical grade.
The α-glucosidase inhibitory activity of the extracts and fractions was determined using a modified procedure reported method with a slight modification. The α-glucosidase activity was measured using the substrate p-nitrophenyl-α-D-glucopyranoside (pNPG), which is hydrolyzed by α-glucosidase to release the product p-nitrophenol, a colorant that can be monitored at 405 nm. The initial concentration of the enzyme solution was 0.62 unit/mL in 0.1 M phosphate buffer (pH 6.9) and the initial concentration of the substrate solution was 2 mM in the same phosphate buffer. The enzyme solution was mixed with water and the samples or controls in a clear 96-well microplate (flat bottom) and the reaction was initiated by addition of the substrate to the solution. The plates were incubated at 37 °C for 5 min and the reaction was terminated by the addition of 0.1 M Na2CO3. […] Background absorbance was determined using a non-enzyme control microplate containing the buffer and was subtracted from the absorbance of the samples and controls.

[3] = target: T1, protein tyrosine phosphatase 1β (PTP1β) (Homo sapiens, UniProt P18031); assay: PTP1β inhibitory activity assay (colorimetric kit, IR5 phosphopeptide substrate); assay type: biochemical; settings: - is no activity; for inhibition at 10 µg/mL: 10 μg/mL; for IC50: isolated compounds
T1 sequence (P18031 1-322 limits assumed): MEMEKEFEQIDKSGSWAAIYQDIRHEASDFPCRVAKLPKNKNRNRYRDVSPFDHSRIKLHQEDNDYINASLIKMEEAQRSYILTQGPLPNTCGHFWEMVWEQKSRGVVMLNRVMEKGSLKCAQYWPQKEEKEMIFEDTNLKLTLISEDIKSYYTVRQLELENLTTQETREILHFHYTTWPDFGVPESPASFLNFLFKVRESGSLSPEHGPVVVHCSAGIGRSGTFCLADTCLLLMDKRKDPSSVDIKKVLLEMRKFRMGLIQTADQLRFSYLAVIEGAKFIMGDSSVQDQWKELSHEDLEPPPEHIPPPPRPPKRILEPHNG
Description: PTP1β tyrosine phosphatase drug discovery kit is a colorimetric, non-radioactive assay designed to measure the phosphatase activity of purified PTP1β. […] Following incubation at 37 °C for 30 min, the reaction was terminated with the BIOMOL RED^TM reagent. The amount of […] produced was estimated by measuring the absorbance at 620 nm. The non-enzymatic hydrolysis of the IR5 substrate was corrected by measuring the increase in absorbance at 620 nm obtained in the absence of PTP1β enzyme.

[4] = test system: recombinant aldose reductase; settings: compounds from X. strumarium; cited from earlier work
[5] = test system: rat lens aldose reductase; settings: compounds from X. strumarium; cited from earlier work
[6] = test system: PTP1β; parameters: method as in ref 16 (Hwang et al.); settings: compounds isolated from Zea mays L.; ref 16 (Hwang et al.); cited from earlier work
[7] = target: α-glucosidase; parameters: method as in ref 15 (Chen et al.); settings: compounds isolated from aerial parts of Gynura divaricate; ref 15 (Chen et al.); read-out: inhibitory effects against α-glucosidase; cited from earlier work

Compound | Inhibition (%) AGEs [1] | Inhibition (%) α-glucosidase ([2]; 50 μg/mL, - is no activity) | inhibition at 10 µg/mL [3] | IC50 [3] | recombinant aldose reductase inhibitory activity [4] | rat lens aldose reductase inhibitory activity [5] | also measured
O=C(/C=C/c1ccc(O)c(O)c1)O[C@@H]1C[C@](O)(C(=O)O)C[C@@H](O)[C@H]1O [compound 5, chlorogenic acid] | 7.47% | 6.60% | – | – | – | – | –
COc1c(O)cc2oc(-c3ccc(O)c(O)c3)c(OC3OC(C(=O)O)C(O)C(O)C3O)c(=O)c2c1O (stereo not shown) [compound 8, patuletin-3-glucuronide] | 6.11% | 6.11% | < 0% | > 19.7 µM | – | – | –
O=C(O)C1OC(Oc2c(-c3ccc(O)c(O)c3)oc3cc(O)cc(O)c3c2=O)C(O)C(O)C1O (stereo not shown) [compound 9, quercetin-3-O-glucuronide] | 23.96% | 15.40% | 10.7% | > 20.9 µM | – | – | –
O=C(/C=C/c1ccc(O)c(O)c1)O[C@@H]1C[C@](O)(C(=O)O)C[C@@H](OC(=O)/C=C/c2ccc(O)c(O)c2)[C@H]1O [compound 10, 3,5-di-O-caffeoylquinic acid] | 42.91% | 52.85% | 18.4% | > 19.4 µM | strong | strong | Inhibition (%) α-glucosidase ([2]; 5 μg/mL): 9.34%; Inhibition (%) α-glucosidase ([2]; 25 μg/mL): 33.72%; Inhibition (%) α-glucosidase ([2]; 100 μg/mL): 99.44%; IC50 ([2]; isolated compounds): 88.1 µM; IC50 α-glucosidase ([2]; isolated compounds, - is no activity): 45.48 ± 4.52 µg/mL (≈ 88.1 µM)
O=C(/C=C/c1ccc(O)c(O)c1)O[C@@H]1C[C@](OC(=O)/C=C/c2ccc(O)c(O)c2)(C(=O)O)C[C@@H](O)[C@H]1O [compound 11, 1,5-di-O-caffeoylquinic acid] | 25.04% | 46.20% | 10.6% | > 19.4 µM | strong | strong | –
O=C(/C=C/c1ccc(O)c(O)c1)O[C@@H]1C[C@@](OC(=O)/C=C/c2ccc(O)c(O)c2)(C(=O)O)C[C@@H](O)[C@@H]1O [compound 12, 1,3-di-O-caffeoylquinic acid] | 40.19% | 38.37% | 22.3% | > 19.4 µM | strong | strong | –
O=C(/C=C/c1ccc(O)c(O)c1)O[C@@H]1C[C@](OC(=O)/C=C/c2ccc(O)c(O)c2)(C(=O)O)C[C@@H](OC(=O)/C=C/c2ccc(O)c(O)c2)[C@H]1O [compound 13, 1,3,5-tri-O-caffeoylquinic acid] | 40.22% | 22.05% | 39.2% | > 14.7 µM | strong | strong | –
OC[C@H]1O[C@H](OC[C@H]2O[C@H](O[C@]3(CO)O[C@H](CO)[C@@H](O)[C@@H]3O)[C@H](O)[C@@H](O)[C@@H]2O)[C@H](O)[C@@H](O)[C@H]1O [compound 14, raffinose] | 14.99% | 5.82% | < 0% | > 19.8 µM | – | – | –
O=c1c(O[C@@H]2O[C@H](CO)[C@@H](O)[C@H](O)[C@H]2O)c(-c2ccc(O)c(O)c2)oc2cc(O)cc(O)c12 [hirsutrin] | – | – | – | – | – | – | PTP1β inhibitory activity IC50 [6]: no activity
COC(=O)[C@]1(O)C[C@@H](O)[C@@H](OC(=O)/C=C/c2ccc(O)c(O)c2)[C@H](OC(=O)/C=C/c2ccc(O)c(O)c2)C1 [methyl 3,4-di-O-CQA] | – | – | – | – | – | – | IC50 [7]: 12.2 µM
methyl 4,5-di-O-CQA | – | – | – | – | – | – | IC50 [7]: 13.1 µM

— PMC6273932, “Xanthium strumarium as an Inhibitor of α-Glucosidase, Protein Tyrosine Phosphatase 1β, Protein Glycation and ABTS^+ for Diabetic and Its Complication” (Molecules, 2016)
